According to patent publication US20260274853A1, “BIFUNCTIONAL COMPOUNDS CONTAINING PYRIMIDINE DERIVATIVES FOR DEGRADING CYCLIN-DEPENDENT KINASE 2 VIA UBIQUITIN PROTEASOME PATHWAY” (NIKANG THERAPEUTICS, INC., priority 2022, published 2026):

Experiments:
CDK2 [1] = target: T1, CDK2 (Homo sapiens, UniProt P24941); test: Inhibition of CDK2: phospho-Rb (S807/811) HTRF measurement in OVCAR3 cells; format: cell-based; details: 24 h compound treatment, read-out: pRb (nM), IC50 in pRB(S807/811) assay
T1 construct: High-Throughput Measurement of Cellular Endogenous CDK2; endogenous in cells; host or cells: OVCAR3

CDK2 [2] = target: T1, CDK2; test: CDK2 HTRF assay: cellular endogenous CDK2 level in OVCAR3 cells; format: cell-based; details: 24 hours compound treatment, read-out: DC50 (half maximal degradation concentration of CDK2)
Outline: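 Endogenous CDK2 degradation in OVCAR3 cells after 24 h compound treatment at 0.3–10,000 nM. Lysates assayed with an HTRF total-CDK2 two-antibody kit, TR-FRET 665/620 ratio normalized to DMSO. DC50 from four-parameter logistic fit, reported as potency bins.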

IC50 (CDK2 [1]) | DC50 (CDK2 [2]) | Compound
< 100 nM | < 100 nM | CN1CCC(n2cc(-c3nc(NC4CCN(S(=O)(=O)c5cccc(CN6CCC(c7ccc8c(N9CCC(=O)NC9=O)nn(C)c8c7)CC6)c5)CC4)ncc3C(F)(F)F)cn2)CC1 [Example 79, 1-(1-methyl-6-(1-(3-((4-((4-(1-(1-methylpiperidin-4-yl)-1H-pyrazol-4-yl)-5-(trifluoromethyl)pyrimidin-2-yl)-amino)piperidin-1-yl)sulfonyl)-benzyl)-piperidin-4-yl)-1H-indazol-3-yl)dihydro-pyrimidine-2,4(1H,3H)-dione]
< 100 nM | < 100 nM | O=C1CCC(c2ccc(N3CCN(Cc4cccc(S(=O)(=O)N5CCC(Nc6ncc(C(F)(F)F)c(-c7cnn(CC(F)(F)F)c7)n6)[C@H](F)C5)c4)CC3)cc2)C(=O)N1 (mixture of isomers) [Example 19, Rac-3-(4-(4-(3-(((3R,4S)-3-fluoro-4-((4-(1-(2,2,2-trifluoroethyl)-1H-pyrazol-4-yl)-5-(trifluoromethyl)pyrimidin-2-yl)-amino)piperidin-1-yl)sulfonyl)benzyl)-piperazin-1-yl)-phenyl)piperidine-2,6-dione]
